Square brackets hold non-standard residues; d marks the D form. Peptide text beside a SMILES is read from it.
Legend:
plasma PTH [1] = assay: In vivo PTH lowering after IV bolus in isoflurane-anesthetized normal Sprague Dawley rats; set-up: species or system rat; conditions: Table 2; for % PTH reduction of baseline at 1 hour post IV administration of 0.5 mg/kg compound: isoflurane-anesthetized normal rats, 0.5 mg/kg IV; for 0.5 mg/kg IV bolus % PTH AUC of saline control: normal rats, AUC 1-4 h
Method in brief: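 Peptides were given as a 0.5 mg/kg IV bolus to normal Sprague Dawley rats kept under isoflurane throughout, with saline bolus controls.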

[2] = tested on: rat peritoneal mast cells; assay: In vitro histamine induction in rat peritoneal mast cells; type: cell-based
Method in brief: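 Mast cells from peritoneal lavage of Sprague Dawley rats were incubated with compound at 10 μM for 15 min at 37 °C in HBSS + 25 mM HEPES pH 7.4. Supernatant histamine measured by EIA; response expressed as fold change versus pre-incubation levels.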

plasma histamine = conditions: rat
Description: For the in vivo evaluation of histamine release, compounds were dosed in isoflurane-anesthetized normal rats at 2 mg/kg by IV bolus (administered over less than one minute). Plasma histamine was measured 5 minutes after compound administration (Cayman histamine EIA #589651).

plasma PTH [3] = assay: 1K1C rat model of acute renal insufficiency, plasma PTH after dosing; type: in vivo; conditions: 1K1C rats, 3 mg/kg 30-minute IV infusion, FIG. 1
Excerpt: A rat model of acute renal insufficiency (also referred to as the 1K1C model) was developed to simulate the pathology of SHPT associated with end stage renal disease. […] The development of this model allowed for the further characterization of described compounds in the context of a subject with renal dysfunction and elevated PTH. Typical baseline PTH levels in this model averaged ˜450 pg/mL.
The ensuing ischemia/reperfusion (I/R) damage to the remaining kidney results in significant necrosis and renal failure. Serum creatinine levels were elevated for over 24-48 hours following I/R insult (data not shown). […] By 48 hours post-I/R, plasma PTH levels were elevated to ˜450 pg/mL (˜5 fold increase) and in some instances reach as high as ˜1200 pg/mL. This reproducible increase in serum creatinine and PTH provided a robust model that mimics the physiology seen ESRD patients.
The protocol used in this study is as follows. Male Sprague Dawley rats were purchased from Charles River Laboratories (Hollister, Calif.; requested purchase weight 250-275 g). […] Animals were maintained in a temperature-controlled environment with a constant 12 hours light/12 hours dark cycle and free access to food and water at all times. All experimental procedures with animals were performed according to IACUC guidelines.
General anesthesia was induced and maintained by intraperitoneal (IP) injection of sodium pentobarbital (5.2%, 0.4 mL/rat). For animals that received 45 minutes of renal ischemia an additional IP injection of sodium pentobarbital (5.2%, 0.1 mL/rat) was given to maintain the anesthetic plane. Blood sampling for PTH measurements following administration of compounds in normal rats was done under continuous isoflurane anesthesia.
For model development studies, the left femoral vein was cannulated with a PE-10 tube for blood drawing. Both kidneys were exposed via a laparotomy. A right nephrectomy was performed after the right renal pedicle and ureter were ligated with double 2-0 silk sutures. After confirmation of non-bleeding in the right pedicle, the left renal artery was carefully dissected and clamped with a micro vascular clip to induce left renal global ischemia. Renal ischemia was confirmed by observation of a global white-grey color change (blanching). The abdominal incision was temporarily covered with gauze to help maintain the temperature of the abdominal organs. After 45 minutes, the designated period of ischemia, the clip was removed and left renal artery flow was considered restored upon observation of a global restoration of red color. The abdominal incision was closed in layers with 2-0 silk sutures. The animal was then recovered from anesthesia. Physiological parameters including body temperature (36-37.5° C.) and body weight were measured throughout the procedure. Body temperature was monitored and maintained using a heat pad rectal probe feedback system.
Approximately 48 hours after the 1K1C surgery (I/R injury), animals were dosed with various compounds to measure effects on plasma PTH and calcium. In most cases, test articles were administered by IV infusion (infusion time 5, 10 or 30 minutes) although in some studies compounds were administered by IV bolus or subcutaneous (SC) bolus injection. For drug administration and blood draws, animals were anesthetized with isoflurane.

[4] = biological target: T1, human calcium-sensing receptor (CaSR) (Homo sapiens, UniProt P41180); assay: In vitro cell assay in HEK-293 expressing the human calcium-sensing receptor (IP1 production); type: cell-based; conditions: Table 5; IP1 production in HEK293 cells expressing human CaSR, eight concentrations in duplicate; read-out: EC50 in CaSR in vitro assay
T1 construct: expressed in transfected cells; host or cells: HEK 293T cells, transiently transfected (lipofectamine 2000); in some cases HEK293 cells stably transfected
T1 sequence (P41180 20-1078): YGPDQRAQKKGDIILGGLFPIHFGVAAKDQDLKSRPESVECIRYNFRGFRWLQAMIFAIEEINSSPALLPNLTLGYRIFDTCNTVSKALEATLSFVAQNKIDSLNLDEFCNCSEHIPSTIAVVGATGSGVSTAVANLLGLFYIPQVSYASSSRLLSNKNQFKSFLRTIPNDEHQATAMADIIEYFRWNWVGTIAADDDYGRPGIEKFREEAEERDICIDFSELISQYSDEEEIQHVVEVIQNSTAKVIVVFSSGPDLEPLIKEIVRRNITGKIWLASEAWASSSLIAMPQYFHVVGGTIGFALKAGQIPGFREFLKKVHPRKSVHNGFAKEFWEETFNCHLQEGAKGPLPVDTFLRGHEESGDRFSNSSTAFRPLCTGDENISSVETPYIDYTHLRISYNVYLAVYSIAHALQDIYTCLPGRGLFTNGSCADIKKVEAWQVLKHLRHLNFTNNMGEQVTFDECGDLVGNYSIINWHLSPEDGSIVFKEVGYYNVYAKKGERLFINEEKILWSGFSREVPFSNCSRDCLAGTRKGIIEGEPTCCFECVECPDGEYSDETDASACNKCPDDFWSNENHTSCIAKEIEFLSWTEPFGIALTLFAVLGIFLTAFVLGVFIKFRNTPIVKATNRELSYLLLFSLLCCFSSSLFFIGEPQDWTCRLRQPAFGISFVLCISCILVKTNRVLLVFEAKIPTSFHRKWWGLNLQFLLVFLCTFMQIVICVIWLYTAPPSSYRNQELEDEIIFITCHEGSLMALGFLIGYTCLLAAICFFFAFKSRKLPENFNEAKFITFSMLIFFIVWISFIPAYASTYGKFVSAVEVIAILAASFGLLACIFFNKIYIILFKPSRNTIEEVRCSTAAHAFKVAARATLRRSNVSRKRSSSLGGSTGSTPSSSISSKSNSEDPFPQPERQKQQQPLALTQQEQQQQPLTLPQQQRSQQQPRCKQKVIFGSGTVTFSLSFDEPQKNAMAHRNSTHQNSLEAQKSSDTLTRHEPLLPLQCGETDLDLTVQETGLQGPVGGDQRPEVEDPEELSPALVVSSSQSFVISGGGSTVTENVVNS
Description: The activity of a variety of peptides and conjugates was tested against the human CaSR. These studies were conducted by measuring IP1 production in HEK293 cells that express the human CaSR. Each peptide was tested in eight different concentrations, in duplicates, to establish a dose response curve. Curve fitting was performed using GraphPad Prism. In Table 5, and throughout the specification, residues provided in capital letters are L-amino acids, while lower case letters indicate D-amino acids. “Ac” indicates an acetyl capping group, “NH2” indicates an amide capping group, “Ac-bAla” is an acetylated beta-alanine, “GSH” indicates reduced glutathione, “GS” indicates oxidized glutathione, “PEG” refers to polyethylene glycol, “PEG2” and “PEGS” refer to polyethylene glycol moieties of 2 kDa and 5 kDa, respectively, and “Mpa” refers to mercaptopropionic acid.
The day after, these cells were transfected with human CaSR receptor using lipofectamine 2000 transfection reagent 24 hrs post transfection, cells were seeded in 384 well plates at 8,000 cells/well. […] In some cases, EC50 values were determined by measuring inositol monophosphate production in the HEK293 cells, stably transfected with the human calcium-sensing receptor (see Table 1).
Cells were incubated with compounds at various concentrations (1 mM or 300 μM as the highest and further ½ log serial dilutions) at 37° C. for 1.5 hrs before reaction termination. […] In brief, incubation with the compound was terminated by sequentially adding D2 labeled-IP1 and cryptate-labeled anti-IP1 in lysis buffer and further incubating at room temperature for 60 minutes. […] Non-transfected 293 cells were used as negative control.
IP1 concentrations were calculated from standard curves (generated with Graph Pad Prism ver. 4) using known concentrations of IP1 standards.

Compound	% PTH reduction of baseline at 1 hour post IV administration of 0.5 mg/kg compound (plasma PTH [1])	0.5 mg/kg IV bolus % PTH AUC of saline control (plasma PTH [1])	Histamine in vitro Fold change of non-treated at 10 uM [2]	Histamine response in vivo Fold change from pre-dose levels 5′ post injection 2 mg/kg IV bolus (plasma histamine)	mean PTH reduction at the 24 hour time point (plasma PTH [3])	EC50 [4]
CC(=O)N[C@H](CS)C(=O)N[C@H](C)C(=O)N[C@H](CCCNC(=N)N)C(=O)N[C@H](CCCNC(=N)N)C(=O)N[C@H](CCCNC(=N)N)C(=O)N[C@H](CCCNC(=N)N)C(=O)N[C@H](C)C(N)=O [SEQ ID NO: 19, Ac-carrrra-NH2] (Ac-[dC][dA][dR][dR][dR][dR][dA]-NH2)	29%	72%	1.3 fold	0.9 fold		
Ac-c(C)rrarar-NH2 [SEQ ID NO: 28]	0%	16%	0.7 fold	0.9 fold		
CC(=O)N[C@H](CS)C(=O)N[C@H](CCCNC(=N)N)C(=O)N[C@H](CCCNC(=N)N)C(=O)N[C@H](CCCNC(=N)N)C(=O)N[C@H](CCCNC(=N)N)C(=O)N[C@H](CCCNC(=N)N)C(N)=O [SEQ ID NO: 5, Ac-crrrrr-NH2] (Ac-[dC][dR][dR][dR][dR][dR]-NH2)					60%	2.5 µM
CC(=O)N[C@H](CS)C(=O)N[C@H](CCCNC(=N)N)C(=O)N[C@H](CCCNC(=N)N)C(=O)N[C@H](C)C(=O)N[C@H](CCCNC(=N)N)C(=O)N[C@H](C)C(=O)N[C@H](CCCNC(=N)N)C(N)=O [SEQ ID NO: 25, Ac-crrarar-NH2] (Ac-[dC][dR][dR][dA][dR][dA][dR]-NH2)				0.9 fold		

Reference: US10280198B2, “Therapeutic agents for reducing parathyroid hormone levels” (KAI PHARMACEUTICALS, INC., priority 2009, dated 2019)
